This is an account of results in patent publication US10434100B2, “Protein phosphatase 2A inhibitors for treating myelodysplastic syndromes” (priority 2014, dated 2019).

Data set [1] deals with Non-del(5q) patient BM MNCs. Nature of the data set: Apoptosis in patient cells, non-del(5q). It counts as cell-based. To be noted: FIG. 5.
Data set [2] concerns MDS that is resistant to lenalidomide. Nature of the data set: Additional studies of LB-100 efficacy in lenalidomide-resistant MDS. It counts as in vivo. The note with it: LB-100 or LB-100 in combination with lenalidomide. The procedure: (§1) Additional studies, similar to the aforementioned Phase I design, are conducted to evaluate the efficacy of LB-100, alone or in combination with lenalidomide, in patients with del(5q) MDS or non-del(5q) MDS.

In data set [3] the test system is Namalwa cells. Nature of the data set: Apoptosis in cell lines (Namalwa), flow cytometry. It counts as cell-based. The note with it: 10 μM, dissolved in MSG. As to the method:
FIG. 3 is a bar graph showing percentage of Namalwa cells undergoing apoptosis after treatment with 0.1 μM, 1.0 μM or 10 μM LB-100 dissolved in DMSO (grey) or MSG (black) compared to control and vehicle.
FIGS. 4A to 4D are a series of flow cytometry plots showing percentage of Namalwa cells undergoing apoptosis after treatment with control (FIG. 4A), 0.1 μM (FIG. 4B), 1.0 μM (FIG. 4C), or 10 μM (FIG. 4D) LB-100.

Data set [4] has as its system del(5q) MDS. Nature of the data set: Additional studies of LB-100 efficacy in del(5q) MDS. It counts as in vivo. As to the method:
as §1
An amount of LB-100 is administered to a subject afflicted with del(5q) MDS. […] An amount of LB-100 in combination with lenalidomide is administered to a subject afflicted with del(5q) MDS.

For data set [5], the system named is Namalwa cells. Nature of the data set: Cell cycle analysis of Namalwa cells treated with LB-100. It counts as cell-based. The procedure:
FIG. 1 is a bar graph showing percent of Namalwa cells in G1 arrest 24 hours after treatment with 0.1 μM, 1.0 μM or 10 μM LB-100 dissolved in DMSO (grey) or MSG (black) compared to control and vehicle.
FIG. 2 is a bar graph showing percent of Namalwa cells in G1 arrest 24 hours after treatment with 0.1 μM, 1.0 μM or 10 μM LB-100 compared to control.
Namalwa cells were treated with LB-100 dissolved in DMSO or MSG.

Another data set deals with non-del(5q) MDS. Nature of the data set: Additional studies of LB-100 efficacy in non-del(5q) MDS. It counts as in vivo. As to the method: as §1
An amount of LB-100 is administered to a subject afflicted with non-del(5q) MDS. […] An amount of LB-100 in combination with lenalidomide is administered to a subject afflicted with non-del(5q) MDS.

The test system of data set [6] is Namalwa cells. Nature of the data set: MTT assay, proliferation of Namalwa cells. Type of data set: cell-based. The note with it: 72 hours, versus control (FIGS. 7B and 7C). As to the method: (§2) FIG. 7A is a graph showing proliferation of HL60 cells 72 hours after treatment with 0.001 μM, 0.01 μM, 0.1 μM, 1.0 μM, 10 μM, or 100 μM LB-100 (grey) or 0.001 μM, 0.01 μM, 0.1 μM, 1.0 μM, 10 μM, or 100 μM lenalidomide (black), compared to control or vehicle. FIGS. 7B to 7C are graphs showing proliferation of Namalwa cells 72 hours after treatment with 0.001 μM, 0.01 μM, 0.1 μM, 1.0 μM, 10 μM, or 100 μM LB-100 (♦), 0.001 μM, 0.01 μM, 0.1 μM, 1.0 μM, 10 μM, or 100 μM lenalidomide (▪), or 0.001 μM, 0.01 μM, 0.1 μM, 1.0 μM, 10 μM, or 100 μM, cantharidin (▴), compared to control or vehicle.
(§3) HL60 cells and U937 cells were compared (FIGS. 8A and 8B).
A general note: Formazan colour is commonly taken as a measure of viable cells.

Another data set has as its system del(5q) patient BM MNCs. Nature of the data set: Apoptosis in patient cells, del(5q). It counts as cell-based. The procedure:
FIG. 6 is a bar graph showing percentage of primary BM MNCs from a Del(5q) patient undergoing apoptosis after treatment with 0.1 μM, 1.0 μM, or 10 μM lenalidomide (grey) or 0.1 μM, 1.0 μM, or 10 μM LB-100 (black), compared to a control.

The next data set relates to HL60 cells. Nature of the data set: MTT assay, proliferation of HL60 cells. The note with it: 72 hours, versus lenalidomide, significant difference at 1 μM (FIG. 7A). It counts as cell-based. As to the method: as §2, §3
The subject of a further data set is non-del (5q) MDS. The note with it: cited from earlier work.
Data set [7] has as its system del(5q) MDS. The note with it: cited from earlier work.
For the next data set, the target named is protein phosphatase 2A (Homo sapiens, UniProt P67775). The note with it: cited from earlier work.
Where [8] appears, read: LB-100 in combination with lenalidomide.

Each structure is given as a SMILES string.

Sequence of protein phosphatase 2A (P67775 whole entry): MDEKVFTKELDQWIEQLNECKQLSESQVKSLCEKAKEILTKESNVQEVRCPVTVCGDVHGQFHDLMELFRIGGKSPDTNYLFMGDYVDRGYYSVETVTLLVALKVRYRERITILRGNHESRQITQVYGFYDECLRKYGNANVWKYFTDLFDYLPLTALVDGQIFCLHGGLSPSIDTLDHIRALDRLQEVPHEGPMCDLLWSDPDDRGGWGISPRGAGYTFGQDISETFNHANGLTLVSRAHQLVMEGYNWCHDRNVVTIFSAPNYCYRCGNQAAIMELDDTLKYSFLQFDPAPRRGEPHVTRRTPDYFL

In the case of `CN1CCN(C(=O)C2C(C(=O)O)[C@H]3CC[C@@H]2O3)CC1` (stereo partly drawn) [LB100], the “Apoptosis (in words)” value in data set [1] is on record as “did not lead to apoptosis”; with Namalwa cells [3] it was “led to apoptosis at 10 μM”; in the data set with del(5q) patient BM MNCs (1 μM), “mild increase in apoptosis”; in the data set on del(5q) patient BM MNCs (0.1, 1.0, 10 μM (FIG. 6)) it was “induced apoptosis in a dose dependent fashion”. The “Efficacy (in words)” value in data set [2] is listed as “effective to treat the MDS”; in the data set on del(5q) MDS [4] (LB-100 alone), “effective to treat the del(5q) MDS”; in the data set on del(5q) MDS [4] (setting [8]), “effective to treat the del(5q) MDS”; in the data set with non-del(5q) MDS (LB-100 alone), “effective to treat the non-del(5q) MDS”; in the data set on non-del(5q) MDS (setting [8]), “effective to treat the non-del(5q) MDS”. For the same compound, in the data set with Namalwa cells [5] (Table 2, FIG. 2), the “G1 arrest, dose dependence (in words)” value is “led to G1 arrest in a dose-dependent fashion”. Moreover, the “G1 arrest (in words)” value in the data set with Namalwa cells [5] (dissolved in DMSO or MSG (Table 1, FIG. 1)) was “led to G1 arrest at 1 and 10 μM in MSG and at 10 μM in DMSO”. Further, the “Proliferation (in words)” value was “significant decrease in proliferation in comparison to control” in the data set with Namalwa cells [6] and “significant decreased proliferation in comparison to treatment with lenalidomide” with HL60 cells. The “Cytotoxicity compared with lenalidomide (in words)” value in the data set on del(5q) patient BM MNCs (10 μM) was “more cytotoxic than lenalidomide”.

On to `Nc1cccc2c1CN(C1CCC(=O)NC1=O)C2=O` (stereo not drawn) [Lenalidomide, lenalidomide], for which the entries for the “transfusion independence (TI), share of patients” value in the data set on non-del (5q) MDS and with del(5q) MDS [7] (lower risk MDS patients with del(5q)) were 26% and 67%, respectively. In addition, the “median duration of response” value in the data set on del(5q) MDS [7] (patients with del5q MDS) is listed as 2.5 years.

`C=C1[C@@H](O)[C@@H]2O[C@]3(CC[C@H](/C=C/[C@@H](C)[C@@H]4CC(C)=C[C@@]5(O[C@H](C[C@@](C)(O)C(=O)O)CC[C@H]5O)O4)O3)CC[C@H]2O[C@@H]1[C@@H](O)C[C@H](C)[C@H]1O[C@@]2(CCCCO2)CC[C@H]1C` [Okadaic acid, 9,10-Deepithio-9,10-didehydroacanthifolicin]: the “Selectivity over PP2B, PP2C and other phosphatases (in words)” value on protein phosphatase 2A was “highly selective over PP2B, PP2C and a range of other phosphatases”.
